System: HCT116 colorectal cancer cells
Experiment: Cisplatin sensitization assay (96 h MTS cell viability);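 also: compound concentration needed to lower the IC50 of Cisplatin alone by a set fold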
Type: cell-based
Settings: Cisplatin sensitization value
Method in brief: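 The MTS viability read, after 1 h with reagent, followed 96 h of co-treatment at 37° C. in 5% CO2. Both compound and cisplatin were titrated 2-fold from a 10 μM top final concentration in a complete concentration matrix on HCT116 cells. Scores +++/++/+ reflect cisplatin sensitization value ranges.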

Row | Compound | Cisplatin Sensitization Assay
1 | CN1CCC(c2ccncc2NC(=O)c2c(N)nn3cc(F)cnc23)CC1=O (stereo not shown) [I-C-73, 2-amino-6-fluoro-N-(4-(1-methyl-2-oxopiperidin-4-yl)pyridin-3-yl)pyrazolo[1,5-a]pyrimidine-3-carboxamide] | ++ (Compounds with a Cisplatin sensitization value >0.02 μM but <0.2 μM are marked with “++.”)
2 | Nc1nn2cc(F)cnc2c1C(=O)Nc1cnccc1-c1cccnc1 [I-C-15, N-([3,4′-bipyridin]-3′-yl)-2-amino-6-fluoropyrazolo[1,5-a]pyrimidine-3-carboxamide] | ++ (Compounds with a Cisplatin sensitization value >0.02 μM but <0.2 μM are marked with “++.”)
3 | CN1CCC(S(=O)(=O)N2CCN(c3c(F)cncc3NC(=O)c3c(N)nn4cc(F)cnc34)CC2)CC1 [I-N-175, 2-amino-6-fluoro-N-(5-fluoro-4-(4-((1-methylpiperidin-4-yl)sulfonyl)piperazin-1-yl)pyridin-3-yl)pyrazolo[1,5-a]pyrimidine-3-carboxamide] | +++ (Compounds with a Cisplatin sensitization value of <0.02 μM are marked with “+++.”)
4 | CN1CC(OC2CCN(c3ccncc3NC(=O)c3c(N)nn4cc(F)cnc34)CC2)C1 [I-N-164, 2-amino-6-fluoro-N-(4-(4-((1-methylazetidin-3-yl)oxy)piperidin-1-yl)pyridin-3-yl)pyrazolo[1,5-a]pyrimidine-3-carboxamide] | +++ (Compounds with a Cisplatin sensitization value of <0.02 μM are marked with “+++.”)
5 | Nc1nn2cc(F)cnc2c1C(=O)Nc1cncc(F)c1N1CCC(CN2CCOCC2)CC1 [I-N-149, 2-amino-6-fluoro-N-(5-fluoro-4-(4-(morpholinomethyl)piperidin-1-yl)pyridin-3-yl)pyrazolo[1,5-a]pyrimidine-3-carboxamide] | +++ (Compounds with a Cisplatin sensitization value of <0.02 μM are marked with “+++.”)
6 | Nc1nn2cc(F)cnc2c1C(=O)Nc1cnccc1C1CCN(C2COC2)CC1 [I-C-10, 2-amino-6-fluoro-N-(4-(1-(oxetan-3-yl)piperidin-4-yl)pyridin-3-yl)pyrazolo[1,5-a]pyrimidine-3-carboxamide] | +++ (Compounds with a Cisplatin sensitization value of <0.02 μM are marked with “+++.”)
7 | COc1ccncc1NC(=O)c1c(N)nn2cc(C(C)C#N)cnc12 (stereo not shown) [I-O-21, 2-amino-6-(1-cyanoethyl)-N-(4-methoxypyridin-3-yl)pyrazolo[1,5-a]pyrimidine-3-carboxamide] | ++ (Compounds with a Cisplatin sensitization value >0.02 μM but <0.2 μM are marked with “++.”)
8 | CC(C)(C)NC(=O)C1CCN(c2c(F)cncc2NC(=O)c2c(N)nn3cc(F)cnc23)CC1 [I-G-19, 2-amino-N-(4-(4-(tert-butylcarbamoyl)piperidin-1-yl)-5-fluoropyridin-3-yl)-6-fluoropyrazolo[1,5-a]pyrimidine-3-carboxamide] | ++ (Compounds with a Cisplatin sensitization value >0.02 μM but <0.2 μM are marked with “++.”)
9 | Nc1nn2cc(F)cnc2c1C(=O)Nc1cncc(F)c1N1CCN(C(=O)C2CCN(C3COC3)CC2)CC1 [I-N-211, 2-amino-6-fluoro-N-(5-fluoro-4-(4-(1-(oxetan-3-yl)piperidine-4-carbonyl)piperazin-1-yl)pyridin-3-yl)pyrazolo[1,5-a]pyrimidine-3-carboxamide] | ++ (Compounds with a Cisplatin sensitization value >0.02 μM but <0.2 μM are marked with “++.”)
10 | Nc1nn2cc(Cl)cnc2c1C(=O)Nc1cnccc1N1CCCC(N)C1 (stereo not shown) [I-N-55, 2-amino-N-(4-(3-aminopiperidin-1-yl)pyridin-3-yl)-6-chloropyrazolo[1,5-a]pyrimidine-3-carboxamide] | ++ (Compounds with a Cisplatin sensitization value >0.02 μM but <0.2 μM are marked with “++.”)
11 | Nc1nn2cc(F)cnc2c1C(=O)Nc1cncc(F)c1N1CCS(=O)(=O)CC1 [I-N-250, 2-amino-N-(4-(1,1-dioxidothiomorpholino)-5-fluoropyridin-3-yl)-6-fluoropyrazolo[1,5-a]pyrimidine-3-carboxamide] | ++ (Compounds with a Cisplatin sensitization value >0.02 μM but <0.2 μM are marked with “++.”)
12 | CC(C)(C#N)c1cnc2c(C(=O)Nc3cnccc3N3CCN(C4COC4)CC3)c(N)nn2c1 [I-N-142, 2-amino-6-(2-cyanopropan-2-yl)-N-(4-(4-(oxetan-3-yl)piperazin-1-yl)pyridin-3-yl)pyrazolo[1,5-a]pyrimidine-3-carboxamide] | ++ (Compounds with a Cisplatin sensitization value >0.02 μM but <0.2 μM are marked with “++.”)
13 | CN1C2CCC1CN(C(=O)C1CCN(c3c(F)cncc3NC(=O)c3c(N)nn4cc(F)cnc34)CC1)C2 [I-G-52, 2-amino-6-fluoro-N-(5-fluoro-4-(4-(8-methyl-3,8-diazabicyclo[3.2.1]octane-3-carbonyl)piperidin-1-yl)pyridin-3-yl)pyrazolo[1,5-a]pyrimidine-3-carboxamide] | +++ (Compounds with a Cisplatin sensitization value of <0.02 μM are marked with “+++.”)
14 | Nc1nn2cc(F)cnc2c1C(=O)Nc1cncc(F)c1N1CCC(C(=O)N2CCN3CCC2CC3)CC1 [I-G-7, N-(4-(4-(1,4-diazabicyclo[3.2.2]nonane-4-carbonyl)piperidin-1-yl)-5-fluoropyridin-3-yl)-2-amino-6-fluoropyrazolo[1,5-a]pyrimidine-3-carboxamide] | +++ (Compounds with a Cisplatin sensitization value of <0.02 μM are marked with “+++.”)
15 | N#CC1CN(C(=O)C2CCN(c3ccncc3NC(=O)c3c(N)nn4cc(F)cnc34)CC2)C1 [I-G-81, 2-amino-N-(4-(4-(3-cyanoazetidine-1-carbonyl)piperidin-1-yl)pyridin-3-yl)-6-fluoropyrazolo[1,5-a]pyrimidine-3-carboxamide] | +++ (Compounds with a Cisplatin sensitization value of <0.02 μM are marked with “+++.”)
16 | CS(=O)(=O)C1CCN(c2ccncc2NC(=O)c2c(N)nn3cc(F)cnc23)CC1 [I-N-190, 2-amino-6-fluoro-N-(4-(4-(methylsulfonyl)piperidin-1-yl)pyridin-3-yl)pyrazolo[1,5-a]pyrimidine-3-carboxamide] | +++ (Compounds with a Cisplatin sensitization value of <0.02 μM are marked with “+++.”)
17 | N#CCc1cnc2c(C(=O)Nc3cnccc3OC3COC3)c(N)nn2c1 [I-O-38, 2-amino-6-(cyanomethyl)-N-(4-(oxetan-3-yloxy)pyridin-3-yl)pyrazolo[1,5-a]pyrimidine-3-carboxamide] | +++ (Compounds with a Cisplatin sensitization value of <0.02 μM are marked with “+++.”)
18 | Nc1nn2cc(F)cnc2c1C(=O)Nc1cnccc1-c1ccccc1 [I-C-5, 2-amino-6-fluoro-N-(4-phenylpyridin-3-yl)pyrazolo[1,5-a]pyrimidine-3-carboxamide] | +++ (Compounds with a Cisplatin sensitization value of <0.02 μM are marked with “+++.”)
19 | Nc1nn2cc(Cl)cnc2c1C(=O)Nc1cnccc1N1CCC(N)CC1 [I-N-86, 2-amino-N-(4-(4-aminopiperidin-1-yl)pyridin-3-yl)-6-chloropyrazolo[1,5-a]pyrimidine-3-carboxamide] | +++ (Compounds with a Cisplatin sensitization value of <0.02 μM are marked with “+++.”)
20 | Nc1nn2cc(F)cnc2c1C(=O)Nc1cncc(F)c1N1CCC(n2ccnc2)CC1 [I-N-288, N-(4-(4-(1H-imidazol-1-yl)piperidin-1-yl)-5-fluoropyridin-3-yl)-2-amino-6-fluoropyrazolo[1,5-a]pyrimidine-3-carboxamide] | +++ (Compounds with a Cisplatin sensitization value of <0.02 μM are marked with “+++.”)
21 | Nc1nn2cc(F)cnc2c1C(=O)Nc1cncc(F)c1N1CCC(N2CCOCC2)CC1 [I-N-189, 2-amino-6-fluoro-N-(5-fluoro-4-(4-morpholinopiperidin-1-yl)pyridin-3-yl)pyrazolo[1,5-a]pyrimidine-3-carboxamide] | +++ (Compounds with a Cisplatin sensitization value of <0.02 μM are marked with “+++.”)
22 | COC1CCN(c2ccncc2NC(=O)c2c(N)nn3cc(F)cnc23)CC1 [I-N-266, 2-amino-6-fluoro-N-(4-(4-methoxypiperidin-1-yl)pyridin-3-yl)pyrazolo[1,5-a]pyrimidine-3-carboxamide] | +++ (Compounds with a Cisplatin sensitization value of <0.02 μM are marked with “+++.”)
23 | CN1CCN2CCN(c3ccncc3NC(=O)c3c(N)nn4cc(F)cnc34)CC2C1=O (stereo not shown) [I-N-233, 2-amino-6-fluoro-N-(4-(8-methyl-9-oxohexahydro-1H-pyrazino[1,2-a]pyrazin-2(6H)-yl)pyridin-3-yl)pyrazolo[1,5-a]pyrimidine-3-carboxamide] | ++ (Compounds with a Cisplatin sensitization value >0.02 μM but <0.2 μM are marked with “++.”)
24 | CN1CCN(CC2CCN(c3c(F)cncc3NC(=O)c3c(N)nn4cc(F)cnc34)CC2)CC1=O [I-N-171, 2-amino-6-fluoro-N-(5-fluoro-4-(4-((4-methyl-3-oxopiperazin-1-yl)methyl)piperidin-1-yl)pyridin-3-yl)pyrazolo[1,5-a]pyrimidine-3-carboxamide] | +++ (Compounds with a Cisplatin sensitization value of <0.02 μM are marked with “+++.”)
25 | Nc1nn2cc(F)cnc2c1C(=O)Nc1cnccc1N1CCC(S(=O)(=O)N2CCN3CCC2CC3)CC1 [I-N-196, N-(4-(4-(1,4-diazabicyclo[3.2.2]nonan-4-ylsulfonyl)piperidin-1-yl)pyridin-3-yl)-2-amino-6-fluoropyrazolo[1,5-a]pyrimidine-3-carboxamide] | +++ (Compounds with a Cisplatin sensitization value of <0.02 μM are marked with “+++.”)
